Laboratory results from article PMC12388884, “Discovery of Small-Molecule PD-L1 Inhibitors via Virtual Screening and Their Immune-Mediated Anti-Tumor Effects” (Pharmaceuticals, 2025).
pKd: −log10 of the molar value. Numbered stars: 1 amine (or outer) side, 2 acyl side, 3 side chain; on linkers, the order of the positions; unused ones are H or OH. Bridge positions count the residues as written; N and C are the ends. Square brackets hold non-standard residues; d marks the D form. Peptide text beside a SMILES is read from it. * marks the point of attachment. pTerphenylCO(4''-OnC5H11) = CCCCCOc1ccc(-c2ccc(-c3ccc(C(=O)*)cc3)cc2)cc1; Orn(4R-OH,5R-OH) = O=C([C@H](C[C@@H](O)[C@@H](O)N[*:3])N[*:1])[*:2]; hTyr(3S-OH,4S-OH) = N[C@H](C(=O)O)[C@H](O)[C@@H](O)c1ccc(O)cc1; Pro(3S-OH,4S-Me) = C[C@H]1CN[C@H](C(=O)O)[C@H]1O; Hyp = O=C(O)[C@@H]1C[C@@H](O)CN1

Target: T1, PD-L1 (Homo sapiens, UniProt Q9NZQ7)
T1 construct: gene CD274
T1 sequence (Q9NZQ7 19-290): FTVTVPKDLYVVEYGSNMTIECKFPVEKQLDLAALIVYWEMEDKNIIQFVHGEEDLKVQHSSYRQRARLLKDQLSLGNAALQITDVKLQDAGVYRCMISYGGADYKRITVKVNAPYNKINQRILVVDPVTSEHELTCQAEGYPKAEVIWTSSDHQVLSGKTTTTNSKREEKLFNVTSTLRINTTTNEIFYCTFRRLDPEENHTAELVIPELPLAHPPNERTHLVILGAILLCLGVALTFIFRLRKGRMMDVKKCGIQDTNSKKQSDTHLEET
Assay: bio-layer interferometry (BLI), immobilized recombinant human PD-L1, […] global kinetic fit
Type: binding

CCCCCOc1ccc(-c2ccc(-c3ccc(C(=O)N[C@H]4C[C@@H](O)[C@@H](O)NC(=O)[C@@H]5[C@@H](O)[C@@H](C)CN5C(=O)[C@H]([C@@H](C)O)NC(=O)[C@H]([C@H](O)[C@@H](O)c5ccc(O)cc5)NC(=O)[C@@H]5C[C@@H](O)CN5C(=O)[C@H]([C@@H](C)O)NC4=O)cc3)cc2)cc1 [anidulafungin] ({pTerphenylCO(4''-OnC5H11)}-[Orn(4R-OH,5R-OH)]T[Hyp][hTyr(3S-OH,4S-OH)]T[Pro(3S-OH,4S-Me)]; lactam 1-C)
pKd: 4.11
